The values below come from US11911353B2, “Fatty acid synthase inhibitor and application thereof” (Jiangnan University, priority 2019, dated 2024).

Common to all, as to format: cell-based
In assay [1] the test system is colon cancer cells HCT116. The assay is described as follows: MTT tumor proliferation IC50, HCT116. The settings on record: Homo sapiens, HCT-116, 72 hours of incubation. From the text:
IC50 (half maximal inhibitory concentration) refers to the half inhibitory concentration of a measured antagonist. It can indicate that a certain concentration of a certain drug or substance (inhibitor) induces tumor cell apoptosis by 50%, and this concentration is referred to as 50% inhibitory concentration, namely, the corresponding concentration when the ratio of apoptotic cells to the total number of cells is equal to 50%. The IC50 value can be used to measure the ability of a drug to induce apoptosis, that is, the higher the inducing ability, the lower the value, which also can indicate the tolerance degree of a certain cell to a drug on the contrary. • (1) Cells in the logarithmic phase are collected, the concentration of a cell suspension is adjusted, it is appropriate to place 100 μl cells in each well of a 96-well plate, the cells are inoculated into the plate to adjust the density of to-be-detected cells to be 1000-10000 cells/well, and edge wells are filled with sterile PBS. • (2) The cells are incubated under 5% CO2 at 37° C., an original culture medium is discarded after complete cell adherence, 200 μl of 1 wt % FBS culture medium containing 0.01 μM, 0.1 μM, 1 μM, 5 μM and 10 μM compound I-1 or cerulenin is added into each well, and there are 6 wells run in duplicate. An equal volume of DMSO is added as a negative control. • (3) After 72 hours of incubation, the cells are photographed for state recording, an original culture medium is discarded, and 100 μl of serum-free culture medium containing 0.5 mg/ml MTT (3-(4,5-dimethylthiazole-2)-2,5-diphenyltetrazolium bromide, trade name thiazolyl blue) is added into each well. • (4) After 2-4 hours of incubation, an original culture medium is discarded, and 150 μl of dimethyl sulfoxide (DMSO) is added into each well and shaken at 300 rpm for 10 minutes to fully dissolve purple crystals. • (5) The absorbance of each well at OD570 nm is measured by an enzyme-linked immunodetection instrument, the absorbance at OD630 nm is used as a reference, dual-wavelength measurement is carried out, and survival rate results are calculated according to the following formula: Cell survival rate=(OD570−OD630)/(OD570 negative control−OD630 negative control);
wherein, OD570: OD570 value of each treatment group; OD630: OD630 value of each treatment group; OD570 control: OD570 value of the negative control group; OD630 control: OD630 value of the negative control group. • (6) The survival rate results are processed with graphpad 6.0 software according to the concentration gradient, the analysis mode is log (inhibitor) vs. Nonlinear regression (curve fit), and the calculated IC50 value is expressed as x+/−SD.
The FASN enzyme activity measurement method shown in Experimental Example 18 is used to detect the effects of different substances on FASN enzyme activity. The method shown in Experimental Example 19 is used to detect the effects of different substances on the proliferation of tumor cells, cerulenin is used as a control, and the inhibition rates (%) of different substances on FASN enzyme activity and inhibition rates (IC50 nM) on tumor proliferation are calculated.

The test system of assay [2] is prostate cancer cells PC-3. The assay is described as follows: Fatty acid content and composition by GC/MS, PC-3 (FIG. 5). Particulars: PC-3, 20 μM, 24 hours.
Source text: […]

Assay [3] concerns prostate cancer cells PC3. The assay is described as follows: Cell division of PC3 cells, CFSE flow cytometry (FIG. 4). Particulars: 10 μM, 24 hours, versus cells without compound.
Source text: […]
On the technique in general: A flow cytometer gives signals particle by particle.

The test system of assay [4] is colon cancer cells HCT116. Put plainly: Fatty acid content and composition by GC/MS, HCT116 (FIG. 5). The settings on record: HCT116, 20 μM, 24 hours.
Source text: […]

For `O=C(CCCC(=O)Nc1ccc(Br)cc1)N/N=C/c1cc(Br)ccc1O` [Compound I-1], the half-inhibitory concentration (IC50) in assay [1] was determined as 13 nM. In assay [2], the “fatty acid content of 16:0” value was “lower than that of the control group” and the “total fatty acid content” value is recorded as “significantly lower than that of the control group”. The “split peak number (cell division)” value in assay [3] is “significantly reduced”. Also, in assay [4], the “fatty acid content of 16:0” value is on record as “lower than that of the control group” and the “total fatty acid content” value was “significantly lower than that of the control group”.

A word on the IC50: it is the point on the concentration scale where inhibition reaches its midpoint. Low values mean higher potency, high ones lower potency.
